# Test results from PMC6823370, “A novel nucleoside rescue metabolic pathway may be responsible for therapeutic effect of orally administered cordycepin” (Scientific Reports, 2019).
# Where two headings read alike, the source gives them in different places.
# How the values were obtained:
# [1] = Plasma protein binding, ultrafiltration, human plasma; assay type: in vitro ADME; details: read-out: fraction unbound (Fub) in plasma
# Experimental: (§1) Cordycepin was spiked into the plasma to give concentrations of 100, 500, 1000 and 5000 ng/mL, and the samples (300 µL) were incubated in the shaking incubator at 250 rpm and 37 °C for 1 h. Following incubation, 100 µL was withdrawn and analysed for Ct. The remaining sample was transferred to a filter device (Amicon Ultra-0.5 Centrifugal Filter Units, MWCO 3000, Merck Millipore, Cork, Ireland) and was centrifuged at 14,000 g for 10 min at room temperature. Filtrate was collected and analysed for Cf. The fraction unbound in plasma (Fub) was calculated by the equation: Cf/Ct × 100 = Fub. Non-specific binding of cordycepin to the filter device was tested at the same concentration range using phosphate buffered saline (PBS) instead of plasma. Experiments were conducted in quadruplicates.
# (§2) Samples from studies of plasma stability, protein binding, biorelevant solubility and liver microsomal stability were subjected to liquid-liquid extraction and HPLC-UV analysis. To 100 µL of sample, internal standard (2′-deoxyadenosine) was spiked at 10 µg/mL and 300 µL of 0.1 M NaOH was added. Extraction solvent (3 mL) of ethyl acetate-isopropyl alcohol (85:15, v/v) was added and vortex-mixed for 10 min. Samples were then centrifuged at 1160 g for 5 min and the supernatant was transferred and dried under N2 gas. […]
# [2] = Biorelevant solubility (FaSSGF, FaSSIF, FeSSIF); assay type: physicochemical; details: thermodynamic from solid, compared with reported water solubility
# Experimental: The three biorelevant fluids of fasted state simulated gastric fluid (FaSSGF, pH 1.6), fasted state simulated intestinal fluid (FaSSIF, pH 6.5) and fed state simulated intestinal fluid (FeSSIF, pH 5.0) were prepared according to previously reported compositions. The test mixtures containing biorelevant fluids and excessive amount of cordycepin were shaken at 250 rpm, 37 °C for 2 h in the shaking incubator. The mixtures were then filtered using Costar Spin-X Centrifuge Tubes (Fisher Scientific, Loughborough, UK) at 2400 g for 5 min. The filtrate was subjected to analysis by HPLC-UV. The experiments were conducted in quadruplicates.
# (§3) Samples from studies of plasma stability, protein binding, biorelevant solubility and liver microsomal stability were subjected to liquid-liquid extraction and HPLC-UV analysis. To 100 µL of sample, internal standard (2′-deoxyadenosine) was spiked at 10 µg/mL and 300 µL of 0.1 M NaOH was added. Extraction solvent (3 mL) of ethyl acetate-isopropyl alcohol (85:15, v/v) was added and vortex-mixed for 10 min. Samples were then centrifuged at 1160 g for 5 min and the supernatant was transferred and dried under N2 gas. Dried samples were reconstituted with 100 uL of deionised distilled water (DDW) and 40 µL was injected into the HPLC-UV. The HPLC-UV setup was adopted from a validated method[22] with addition of a gradient scheme to elute the impurities from samples. Waters Alliance 2695 module with Waters 996 PDA detector was used for the HPLC-UV system with Capcell Pak C18 3 µm, 4.6 × 150 mm as the stationary phase. Mobile phase was a mixture of acetonitrile (A) and DDW (B) at flow rate 0.8 mL/min with a gradient scheme of the following: 0–9 min, B 94%; 9–14 min, B decreased to 20%; 14–24 min, B 20%; 24–26 min, B increased to 94%; and 26–35 min, B 94%. Calibration curves were constructed at a range of 10 – 20000 ng/mL and chromatograms were obtained at 259 nm of wavelength.
# [3] = Liver microsomal stability, rat liver microsomes; assay type: in vitro ADME; details: for Fh, parallel-tube model / Fh, well-stirred model / CLint scaled at 1 µM: rat liver microsome, pentostatin −; for CLint scaled at 1 µM: rat, liver microsomes
# Experimental: Human and rat liver microsomes were used in the experiment following previously reported methods[49],[50]. Microsomes were used at 0.5 mg protein/mL and cordycepin was tested at 1 µM. […] The reaction mixture was incubated in the shaking incubator at 37 °C for 30 min with sampling every 10 min. The results of intrinsic clearance and the fraction that escapes hepatic metabolism (by both well-stirred and parallel-tube models) were calculated by previously reported equations and physiological parameters[50]–[52]. The experiments were performed in triplicates.
# as §3
# [4] = Plasma protein binding, ultrafiltration, rat plasma; assay type: in vitro ADME; details: read-out: fraction unbound (Fub) in plasma
# Experimental: as §1, §2
# [5] = Sample storage stability of cordycepin in rat plasma containing pentostatin; assay type: in vitro ADME; details: for Autosampler (24 h, 4°C) sample stability: processed samples; for Freeze-thaw (3 cycles) sample stability / Long-term (4 weeks, -80°C) sample stability / Long-term (5 days, -80°C) sample stability / Short-term (4 h, RT) sample stability: rat plasma with 10 µM pentostatin
# Experimental: Stability of cordycepin was tested in different conditions. […] Samples withdrawn at pre-determined time points were prepared and analysed for stability and degradation rate of cordycepin in rat plasma.
# Sample storage stability studies were conducted with QC samples (LQC, MQC and HQC; 5 replicates for each condition). […] Short-term (benchtop) stability was tested after storing spiked QC samples for 4 h at room temperature. Long-term stability was tested in storage condition of -80 °C for 5 days and 4 weeks. Freeze-thaw cycle stability was tested after undergoing three cycles between -80 °C and room temperature. Autosampler stability was tested by analysing processed QC samples after storage at 4 °C for 24 h. All stability samples were quantified with freshly prepared calibration curve samples. Stock solution stability was tested by analysing five different aliquots of 1000 ng/mL working standard solution stored for 6 h at room temperature and comparing to a fresh working standard solution.
# [6] = text summary over rat and human liver microsomes, without pentostatin
smiles,measurement,setting,value
"Nc1ncnc2c1ncn2[C@@H]1O[C@H](CO)C[C@H]1O [cordycepin, 3′-deoxyadenosine]",fraction unbound at 1 h,[1],> 0.8
same,solubility at 2 h,"[2]; FaSSGF, fassgf or other biorelevant, pH 1.6, 37 °C, read-out: solubility in FaSSGF",> 5000 µg/mL
same,solubility at 2 h,"[2]; FaSSIF, pH 6.5, 37 °C, read-out: solubility in FaSSIF",> 5000 µg/mL
same,solubility at 2 h,"[2]; FeSSIF, pH 5.0, 37 °C, read-out: solubility in FeSSIF",> 5000 µg/mL
same,"Fh, parallel-tube model",[3]; NADPH +,0.1 ± 0.0%
same,"Fh, well-stirred model",[3]; NADPH +,12.4 ± 0.9%
same,"Fh, parallel-tube model",[3]; NADPH −,0.1 ± 0.1%
same,"Fh, well-stirred model",[3]; NADPH −,12.5 ± 1.5%
same,CLint scaled at 1 µM,[3]; NADPH +,392 ± 31.3 mL/min/kg
same,CLint scaled at 1 µM,[3]; NADPH −,390 ± 51.4 mL/min/kg
same,"Fh calculated from CLint, parallel-tube model",[3]; [6],~0%
same,"Fh calculated from CLint, well-stirred model",[3]; [6],10–13%
same,fraction unbound at 1 h,[4],> 0.8
same,"Autosampler (24 h, 4°C) sample stability",[5]; HQC 4000 ng/mL,100.4 ± 3.4
same,Freeze-thaw (3 cycles) sample stability,[5]; HQC 4000 ng/mL,106.7 ± 7.4
same,"Long-term (4 weeks, -80°C) sample stability",[5]; HQC 4000 ng/mL,103.8 ± 1.5
same,"Long-term (5 days, -80°C) sample stability",[5]; HQC 4000 ng/mL,98.6 ± 5.4
same,"Short-term (4 h, RT) sample stability",[5]; HQC 4000 ng/mL,107.4 ± 2.9
same,"Autosampler (24 h, 4°C) sample stability",[5]; LQC 5 ng/mL,113.8 ± 8.9
same,Freeze-thaw (3 cycles) sample stability,[5]; LQC 5 ng/mL,104.5 ± 7.4
same,"Long-term (4 weeks, -80°C) sample stability",[5]; LQC 5 ng/mL,93.5 ± 7.0
same,"Long-term (5 days, -80°C) sample stability",[5]; LQC 5 ng/mL,107.4 ± 3.8
same,"Short-term (4 h, RT) sample stability",[5]; LQC 5 ng/mL,104.7 ± 9.2
same,"Autosampler (24 h, 4°C) sample stability",[5]; MQC 80 ng/mL,91.6 ± 3.6
same,Freeze-thaw (3 cycles) sample stability,[5]; MQC 80 ng/mL,113.1 ± 13.1
same,"Long-term (4 weeks, -80°C) sample stability",[5]; MQC 80 ng/mL,113.5 ± 3.3
same,"Long-term (5 days, -80°C) sample stability",[5]; MQC 80 ng/mL,110.0 ± 3.3
same,"Short-term (4 h, RT) sample stability",[5]; MQC 80 ng/mL,98.2 ± 7.3
